# Data: ChEMBL document CHEMBL4118135, “Optimized allosteric inhibition of engineered protein tyrosine phosphatases with an expanded palette of biarsenical small molecules” (Bioorg Med Chem, 2018)
# Substitutions are numbered along the chain they refer to. Active and inactive are the calls of the source. The rule behind the calls is not given here.
# Tests used:
# [1] = tested on: T1, Tyrosine-protein phosphatase non-receptor type 7 (Homo sapiens), P35236 [P171C,V205C]; experiment: Inhibition of allosterically sensitized mutant form of His6-tagged human HePTP at 1000 nM using pNPP as substrate measured at 5 mins by quenched phosphatase activity assay
# T1 sequence (whole entry): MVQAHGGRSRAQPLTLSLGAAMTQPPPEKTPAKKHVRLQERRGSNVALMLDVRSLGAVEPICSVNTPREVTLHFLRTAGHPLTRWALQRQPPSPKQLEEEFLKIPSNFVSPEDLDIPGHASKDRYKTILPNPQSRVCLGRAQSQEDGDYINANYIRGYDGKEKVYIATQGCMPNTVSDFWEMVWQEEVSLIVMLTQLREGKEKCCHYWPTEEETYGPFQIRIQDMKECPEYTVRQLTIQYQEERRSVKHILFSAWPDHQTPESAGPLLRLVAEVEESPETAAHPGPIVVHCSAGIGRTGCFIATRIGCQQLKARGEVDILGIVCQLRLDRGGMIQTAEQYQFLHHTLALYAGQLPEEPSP
# [2] = biological target: Tyrosine-protein phosphatase non-receptor type 13 (Homo sapiens) (UniProt Q12923); experiment: Inhibition of allosterically sensitized mutant form of His6-tagged human FAP1 catalytic domain using pNPP as substrate after 90 mins by quenched phosphatase activity assay
# [3] = biological target: T2, Tyrosine-protein phosphatase non-receptor type 11 (Homo sapiens) (UniProt Q06124); experiment: Inhibition of allosterically sensitized mutant form of His6-tagged human SHP2 catalytic domain using pNPP as substrate after 90 mins by quenched phosphatase activity assay
# T2 sequence (whole entry): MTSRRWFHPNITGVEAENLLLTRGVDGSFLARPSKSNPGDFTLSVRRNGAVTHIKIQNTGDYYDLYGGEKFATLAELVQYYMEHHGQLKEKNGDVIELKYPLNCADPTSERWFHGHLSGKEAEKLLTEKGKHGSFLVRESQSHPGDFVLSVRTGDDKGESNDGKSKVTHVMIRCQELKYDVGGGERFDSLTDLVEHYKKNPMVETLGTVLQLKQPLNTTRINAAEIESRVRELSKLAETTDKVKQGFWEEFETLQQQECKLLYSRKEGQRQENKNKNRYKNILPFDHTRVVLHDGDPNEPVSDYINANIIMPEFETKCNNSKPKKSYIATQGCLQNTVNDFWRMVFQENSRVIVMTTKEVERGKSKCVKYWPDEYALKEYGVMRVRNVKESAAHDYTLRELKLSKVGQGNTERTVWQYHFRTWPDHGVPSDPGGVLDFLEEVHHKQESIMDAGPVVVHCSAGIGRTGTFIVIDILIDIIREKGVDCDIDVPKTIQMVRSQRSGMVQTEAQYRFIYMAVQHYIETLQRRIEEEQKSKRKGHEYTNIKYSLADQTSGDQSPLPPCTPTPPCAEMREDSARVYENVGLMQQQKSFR
# [4] = tested on: Tyrosine-protein phosphatase non-receptor type 7 (Homo sapiens), P35236 [UNDEFINED MUTATION]; experiment: Inhibition of Inhibition of allosterically sensitized mutant form of His6-tagged […] human HePTP catalytic domain overexpressed in Escherichia coli BL21(DE3) cells at 25 uM using pNPP as substrate incubated for 90 mins by quenched phosphatase activity assay
# [5] = tested on: T1, Tyrosine-protein phosphatase non-receptor type 7 (Homo sapiens), P35236 [P171C,V205C]; experiment: Binding affinity to allosterically sensitized mutant form of His6-tagged human HePTP catalytic domain overexpressed in Escherichia coli crude cell lysate at 100 uM after 90 mins by SDS-PAGE analysis
# [6] = tested on: Tyrosine-protein phosphatase non-receptor type 7 (Homo sapiens), P35236 [UNDEFINED MUTATION]; experiment: Inhibition of allosterically sensitized mutant form of His6-tagged human wild-type HePTP catalytic domain at 1.92 uM using pNPP as substrate incubated for 90 mins by quenched phosphatase activity assay
# [7] = tested on: T1, Tyrosine-protein phosphatase non-receptor type 7 (Homo sapiens), P35236 [P171C,V205C]; experiment: Binding affinity to allosterically sensitized mutant form of His6-tagged human HePTP catalytic domain overexpressed in Escherichia coli crude cell lysate at 25 to 100 uM using pNPP as substrate after 90 mins by SDS-PAGE and LC-MS/MS method
# [8] = biological target: T3, Tyrosine-protein phosphatase non-receptor type 1 (Homo sapiens) (UniProt P18031); experiment: Inhibition of His6-tagged human wild-type PTP1B catalytic domain at 2000 nM using pNPP as substrate incubated for 90 mins by quenched phosphatase activity assay
# T3 sequence (whole entry): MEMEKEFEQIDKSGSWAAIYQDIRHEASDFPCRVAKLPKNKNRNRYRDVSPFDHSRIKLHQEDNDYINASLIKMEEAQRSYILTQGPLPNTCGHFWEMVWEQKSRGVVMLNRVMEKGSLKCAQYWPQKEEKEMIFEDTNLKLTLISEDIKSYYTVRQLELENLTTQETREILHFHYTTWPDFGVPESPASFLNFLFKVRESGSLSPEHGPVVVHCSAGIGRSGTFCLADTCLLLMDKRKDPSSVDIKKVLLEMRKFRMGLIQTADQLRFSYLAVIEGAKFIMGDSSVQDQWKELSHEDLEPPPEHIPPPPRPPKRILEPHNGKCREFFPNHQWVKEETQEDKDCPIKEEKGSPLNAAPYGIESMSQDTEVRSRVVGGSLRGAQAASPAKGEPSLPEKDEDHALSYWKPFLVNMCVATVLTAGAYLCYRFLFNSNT
# [9] = tested on: T4, Tyrosine-protein phosphatase non-receptor type 1 (Homo sapiens), P18031 [P87C,A122C]; experiment: Inhibition of allosterically sensitized His6-tagged human PTP1B catalytic domain P87C/A122C mutant at 2000 nM using pNPP as substrate incubated for =
# T4 sequence (whole entry): T3 sequence (whole entry) with P87C, A122C
# [10] = biological target: T3, Tyrosine-protein phosphatase non-receptor type 1 (Homo sapiens); experiment: Binding affinity to His6-tagged human wild-type PTP1B catalytic domain overexpressed in Escherichia coli crude cell lysate at 6.66 uM incubated for 90 mins by SDS-PAGE and LC-MS/MS method
# [11] = biological target: Tyrosine-protein phosphatase non-receptor type 6 (Homo sapiens) (UniProt P29350); experiment: Inhibition of allosterically sensitized mutant form of His6-tagged human SHP1 catalytic domain using pNPP as substrate after 120 mins by quenched phosphatase activity assay
# [12] = biological target: T3, Tyrosine-protein phosphatase non-receptor type 1 (Homo sapiens); experiment: Inhibition of His6-tagged human wild-type PTP1B catalytic domain overexpressed in Escherichia coli crude cell lysate using pNPP as substrate incubated for 90 mins by quenched phosphatase activity assay
# Sequence of Tyrosine-protein phosphatase non-receptor type 7 (Homo sapiens), P35236 [UNDEFINED MUTATION] (P35236 whole entry, looked up, stated change not applied, the tested form may be a part): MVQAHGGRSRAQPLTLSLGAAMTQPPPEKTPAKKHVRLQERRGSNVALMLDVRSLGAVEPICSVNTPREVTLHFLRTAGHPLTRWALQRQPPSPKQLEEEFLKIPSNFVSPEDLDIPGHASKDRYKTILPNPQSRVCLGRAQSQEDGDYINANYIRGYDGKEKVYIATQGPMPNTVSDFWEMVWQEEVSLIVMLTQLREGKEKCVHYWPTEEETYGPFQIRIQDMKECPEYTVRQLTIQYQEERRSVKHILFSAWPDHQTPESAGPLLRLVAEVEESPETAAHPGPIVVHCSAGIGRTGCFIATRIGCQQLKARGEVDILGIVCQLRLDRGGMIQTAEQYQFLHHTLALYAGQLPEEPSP
# Sequence of Tyrosine-protein phosphatase non-receptor type 13 (Homo sapiens) (Q12923 whole entry, the tested form may be a part): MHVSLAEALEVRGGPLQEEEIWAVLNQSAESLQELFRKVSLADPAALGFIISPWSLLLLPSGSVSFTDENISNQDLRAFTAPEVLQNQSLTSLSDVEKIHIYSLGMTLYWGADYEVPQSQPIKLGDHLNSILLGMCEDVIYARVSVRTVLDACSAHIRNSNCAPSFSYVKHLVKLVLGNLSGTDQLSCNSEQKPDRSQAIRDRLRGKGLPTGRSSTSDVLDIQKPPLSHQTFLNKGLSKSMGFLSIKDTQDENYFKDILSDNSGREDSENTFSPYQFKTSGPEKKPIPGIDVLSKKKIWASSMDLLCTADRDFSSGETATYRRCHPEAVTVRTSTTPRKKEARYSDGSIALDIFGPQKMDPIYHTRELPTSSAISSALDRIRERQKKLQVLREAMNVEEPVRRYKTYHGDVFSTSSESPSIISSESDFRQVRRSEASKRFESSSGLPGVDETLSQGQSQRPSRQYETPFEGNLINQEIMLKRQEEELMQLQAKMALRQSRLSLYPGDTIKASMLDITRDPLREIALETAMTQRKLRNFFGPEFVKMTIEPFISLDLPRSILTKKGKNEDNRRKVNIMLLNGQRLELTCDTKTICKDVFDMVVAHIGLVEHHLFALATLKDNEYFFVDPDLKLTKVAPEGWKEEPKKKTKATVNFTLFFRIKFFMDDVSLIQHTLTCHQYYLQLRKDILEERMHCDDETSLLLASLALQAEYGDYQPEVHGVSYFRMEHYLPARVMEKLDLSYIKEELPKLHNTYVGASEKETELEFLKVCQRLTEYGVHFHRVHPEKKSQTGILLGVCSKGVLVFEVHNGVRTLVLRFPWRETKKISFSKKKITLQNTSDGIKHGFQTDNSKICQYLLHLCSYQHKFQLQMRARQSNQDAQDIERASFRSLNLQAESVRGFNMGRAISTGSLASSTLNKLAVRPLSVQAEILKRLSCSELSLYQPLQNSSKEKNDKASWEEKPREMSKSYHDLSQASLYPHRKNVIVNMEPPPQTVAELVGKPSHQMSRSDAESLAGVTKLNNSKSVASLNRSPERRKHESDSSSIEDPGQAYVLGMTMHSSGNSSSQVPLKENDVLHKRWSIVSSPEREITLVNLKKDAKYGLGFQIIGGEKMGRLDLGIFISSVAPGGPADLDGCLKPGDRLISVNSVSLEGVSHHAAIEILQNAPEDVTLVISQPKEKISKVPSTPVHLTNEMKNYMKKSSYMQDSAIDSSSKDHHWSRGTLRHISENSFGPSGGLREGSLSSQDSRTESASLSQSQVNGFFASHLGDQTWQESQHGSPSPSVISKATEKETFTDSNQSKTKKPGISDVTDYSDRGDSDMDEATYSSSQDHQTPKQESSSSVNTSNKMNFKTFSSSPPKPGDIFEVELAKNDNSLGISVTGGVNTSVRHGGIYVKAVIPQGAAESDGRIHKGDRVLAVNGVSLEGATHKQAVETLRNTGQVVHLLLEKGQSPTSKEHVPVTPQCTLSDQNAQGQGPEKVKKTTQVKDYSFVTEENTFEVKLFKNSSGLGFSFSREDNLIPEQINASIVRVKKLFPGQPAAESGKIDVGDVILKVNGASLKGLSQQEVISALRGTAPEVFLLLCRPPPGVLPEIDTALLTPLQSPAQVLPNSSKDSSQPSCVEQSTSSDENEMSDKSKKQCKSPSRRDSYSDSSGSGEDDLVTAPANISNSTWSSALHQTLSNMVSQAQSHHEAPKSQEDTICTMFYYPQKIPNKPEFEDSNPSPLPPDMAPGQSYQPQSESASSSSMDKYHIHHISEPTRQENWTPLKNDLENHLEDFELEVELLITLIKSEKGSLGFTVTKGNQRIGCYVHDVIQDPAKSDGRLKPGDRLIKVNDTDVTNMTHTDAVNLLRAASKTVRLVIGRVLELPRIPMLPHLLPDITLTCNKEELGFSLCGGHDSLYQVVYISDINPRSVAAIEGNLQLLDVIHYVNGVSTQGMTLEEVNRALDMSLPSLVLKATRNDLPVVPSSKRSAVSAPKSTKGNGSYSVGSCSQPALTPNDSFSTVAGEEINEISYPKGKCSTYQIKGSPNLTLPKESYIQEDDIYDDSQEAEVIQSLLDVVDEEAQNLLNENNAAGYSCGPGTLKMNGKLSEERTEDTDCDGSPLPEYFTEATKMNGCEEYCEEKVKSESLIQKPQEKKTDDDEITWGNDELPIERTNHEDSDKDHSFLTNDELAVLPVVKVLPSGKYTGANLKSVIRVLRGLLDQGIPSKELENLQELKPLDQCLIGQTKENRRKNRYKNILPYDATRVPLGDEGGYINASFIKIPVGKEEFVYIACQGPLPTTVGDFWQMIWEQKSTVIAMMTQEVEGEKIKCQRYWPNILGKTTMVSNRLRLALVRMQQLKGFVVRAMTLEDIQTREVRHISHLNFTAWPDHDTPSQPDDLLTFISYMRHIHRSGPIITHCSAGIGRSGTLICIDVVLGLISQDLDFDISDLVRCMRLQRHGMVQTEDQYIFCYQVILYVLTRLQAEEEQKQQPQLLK
# Sequence of Tyrosine-protein phosphatase non-receptor type 6 (Homo sapiens) (P29350 whole entry, the tested form may be a part): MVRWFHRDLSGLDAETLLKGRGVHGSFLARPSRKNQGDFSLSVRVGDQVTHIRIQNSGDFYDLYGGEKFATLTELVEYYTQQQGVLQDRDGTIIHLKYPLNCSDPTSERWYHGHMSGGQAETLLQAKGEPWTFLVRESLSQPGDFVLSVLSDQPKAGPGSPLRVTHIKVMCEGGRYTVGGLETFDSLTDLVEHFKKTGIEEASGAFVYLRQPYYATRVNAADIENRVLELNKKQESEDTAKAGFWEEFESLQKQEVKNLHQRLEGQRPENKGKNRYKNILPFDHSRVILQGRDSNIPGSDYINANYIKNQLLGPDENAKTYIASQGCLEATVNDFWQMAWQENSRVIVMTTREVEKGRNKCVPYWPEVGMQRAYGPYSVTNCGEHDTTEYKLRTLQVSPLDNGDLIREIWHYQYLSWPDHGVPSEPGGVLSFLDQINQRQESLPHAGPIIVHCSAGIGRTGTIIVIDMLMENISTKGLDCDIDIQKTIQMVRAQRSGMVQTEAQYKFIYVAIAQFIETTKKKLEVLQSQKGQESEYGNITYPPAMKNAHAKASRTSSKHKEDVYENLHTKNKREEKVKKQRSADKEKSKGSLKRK
SMILES,inhibition [1] [%],inhibition [2],inhibition [3],inhibition [4],Activity [5],inhibition [6] [%],Activity [7],inhibition [8],inhibition [9] [%],Activity [10],inhibition [11],inhibition [12]
O=C(O)c1ccccc1-c1c2ccc(=O)c([As]3SCCS3)c-2oc2c([As]3SCCS3)c(O)ccc12,70,Dose-dependent effect,Dose-dependent effect,Active,inactive,50,Active,–,–,–,–,–
CC1(C)C(/C=C/C=C2/N(CCCCS(=O)(=O)O)c3ccc([As]4SCCS4)cc3C2(C)C)=[N+](CCCCS(=O)(=O)O)c2ccc([As]3SCCS3)cc21,–,–,–,–,–,–,–,inactive,50,inactive,Dose-dependent effect,inactive
